# Test results from patent US20250346643A1, “TROPOMYOSIN KINASE RECEPTOR (TRK) LIGANDS AS THERAPEUTICS TO SUPPORT LIVER REGENERATION” (Vanderbilt University, priority 2024, published 2025).
# System: CCND1 and PCNA
# Test: Immunoblotting of HDOs for CCND1 and PCNA
# Assay type: cell-based, human
# Settings: NTF3
# Experimental: Human ductal organoids. The normal human liver tissue was obtained through the Cooperative Human Tissue Network (CHTN) at Vanderbilt University Medical Center. The liver was cut into very small pieces in liver digestion medium (Gibco, Waltham, MA; 17703-034). The cell suspension was filtered through a 100-μm cell strainer. The flow through was then centrifuged for 2 min at 100 g, 4° C., and the cell pellet resuspended in ice-cold DMEM (Gibco, Waltham, MA; 11885-084, supplemented by 5% FBS) and centrifuged for 2 min at 300 g. The cell pellet was gently resuspended in Matrigel® (Corning, Corning, NY; 356231) and a […] dome plated in a 24-well plate. The plate was incubated for 10-15 min at 37° C. […]
# Immunoblotting. […] Protein concentration of supernatants was determined by Direct Detect Spectrophotometer (MilliporeSigma, Burlington, MA). […] The protein concentration of supernatants was determined by a Direct Detect® spectrophotometer (MilliporeSigma, Burlington, MA). For immunoblot analysis, 10 to 50 μg of protein diluted in […] sample buffer (Invitrogen, Waltham, MA) were analyzed per SDS-polyacrylamide gel electrophoresis (NuPAGE™, Invitrogen, Waltham, MA) using Mops buffer or MES buffer (Invitrogen, Waltham, MA). […] Semi-quantitative band densitometry was performed using ImageJ software (version 1.53).
substance,measurement,value
"NTF3: neurotrophin-3, recombinant protein; HSC-derived hepatocyte mitogen, ligand of TRKA, TRKB, TRKC",CCND1 and PCNA (immunoblotting),induced CCND1 and PCNA
